Measurements published in BigSolDB 2.1.

Conditions: in NMP

O=C1OC(=O)[C@H]2[C@@H]1[C@@H]1C=C[C@H]2C1
Conditions | solubility (mole fraction)
278.15 K | 0.112
283.15 K | 0.126
288.15 K | 0.14
293.15 K | 0.156
298.15 K | 0.172
303.15 K | 0.19
308.15 K | 0.209
313.15 K | 0.225
318.15 K | 0.245
323.15 K | 0.265
